# Laboratory results as given in patent EP1200395B1, “UREA DERIVATIVES AS INHIBITORS OF CCR-3 RECEPTOR” (KIRIN BEER KABUSHIKI KAISHA, priority 1999, dated 2001).
# Molecular target: T1, CCR-3 (Homo sapiens, UniProt P51677)
# T1 sequence (P51677 1-355): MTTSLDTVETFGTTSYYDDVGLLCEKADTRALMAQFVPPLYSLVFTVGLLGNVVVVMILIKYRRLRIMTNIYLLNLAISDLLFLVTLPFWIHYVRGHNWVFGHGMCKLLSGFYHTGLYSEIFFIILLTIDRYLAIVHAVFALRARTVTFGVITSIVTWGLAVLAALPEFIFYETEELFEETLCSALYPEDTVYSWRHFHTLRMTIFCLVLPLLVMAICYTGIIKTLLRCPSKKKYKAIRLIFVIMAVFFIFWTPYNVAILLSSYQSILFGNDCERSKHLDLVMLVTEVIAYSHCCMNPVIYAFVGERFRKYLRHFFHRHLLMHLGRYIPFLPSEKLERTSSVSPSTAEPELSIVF
# Assay: Eotaxin-induced chemotaxis of CCR-3 transfectant cells (CCR3/U937)
# Assay type: cell-based
# Design: expressed in transfected cells; host or cells: U937
# Conditions: 10 µM test compound; eotaxin 1 x 10^-9 M; CCR3/U937 cells (Table 3a)
# Method: The inhibitory activity of the compounds against eotaxin-induced chemotaxis was determined by measuring the inhibition of migration of CCR-3 transfectant cells (CCR3/U937), using a minor modification of the method described by Ohashi, H. et al., Int Arch Allergy Immunol. […] The chemotaxis assay was performed in a 24-well culture plate. Human eotaxin suspended in assay medium was added to the wells at 1 x 10^-9 M along with test compounds at various concentrations. For a positive control, eotaxin was added to the wells without a test compound, and for a negative control, neither eotaxin nor a test compound was added to the wells. Chemotaxicell (Kurabo Co., Ltd.) having 5 micrometers pore size were inserted into each well and 100 micro liters of CCR-3 transfectant cells suspension were added to the top chamber. The plates were incubated at 37 °C for 1 hour. After incubation, migrated cells in lower wells were diluted and counted by particle size distribution analyzer (CDP-500, Sysmex Co., Ltd.).
row,Chemotaxis Assay 10 µM (inhibition %),Structure (SMILES)
1,100%,Cc1cccc(NC(=O)NCCCN(CCCC(=O)O)C2CCCc3ccccc32)c1 (stereo not drawn) [Compound 83]
2,37%,COc1ccc(NC(=O)NCCCN(CCCC(=O)O)C2CCCc3ccccc32)c(OC)c1 (stereo not drawn) [Compound 86]
3,99%,O=C(O)CCCCN(CCCNC(=O)Nc1ccc(Br)cc1)C1CCCc2ccccc21 (stereo not drawn) [Compound 214]
4,97%,O=C(NCCCN(CCCCCO)C1CCCc2ccccc21)Nc1ccc(Br)cc1 (stereo not drawn) [Compound 205]
5,97%,CCCCN(CCCNC(=O)Nc1ccccc1)CCc1ccc(Cl)cc1 [Compound 14]
6,50%,CC(C)(Cc1ccccc1)N(CCCNC(=O)Nc1ccc(Br)cc1)CCCC(=O)O [Compound 207]
7,62%,COC(=O)CCCN(CCCNC(=O)Nc1ccc(Br)cc1)C(Cc1ccccc1)c1ccccc1 (stereo not drawn) [Compound 45]
8,86%,O=C(NCCCN(Cc1ccc(C(=O)O)cc1)C1CCCc2ccccc21)Nc1ccc(Br)cc1 (stereo not drawn) [Compound 223]
9,100%,COC(=O)CCCN(CCCNC(=O)Nc1ccccc1)CCc1ccc(Cl)cc1 [Compound 49]
10,90%,CCN(CCCNC(=O)Nc1ccccc1)CCc1ccc(C)cc1 [Compound 231]
11,86%,O=C(NCCCN(CCCO)CCc1ccc(Cl)cc1)Nc1ccccc1 [Compound 219]
12,100%,"COC(=O)CCCN(CCCNC(=O)Nc1ccc(Br)cc1)[C@H](C)c1ccccc1 [Compound 30, Methyl 4-[[3-(4-bromophenylureido)propyl][(1R)-1-phenylethyl]-amino]butylate]"
13,100%,O=C(O)CCCN(CCCNC(=O)Nc1cccc2ccccc12)C1CCCc2ccccc21 (stereo not drawn) [Compound 90]
14,78%,O=C(O)CCCN(CCCNC(=O)Nc1ccc(Br)cc1)CCc1ccc(Cl)cc1 [Compound 79]
15,76%,CC(c1ccccc1)N(CCCNC(=O)Nc1ccc(Br)cc1)CCCC(=O)O (stereo not drawn) [Compound 77]
16,99%,CCN(CCCCNC(=O)Nc1ccc([N+](=O)[O-])cc1)CCc1ccc(Cl)cc1 [Compound 5]
17,63%,N#Cc1ccc(CN(CCCNC(=O)Nc2ccccc2)CCc2ccc(Cl)cc2)cc1 [Compound 16]
18,100%,CC(C)N(CCCNC(=O)Nc1ccccc1)CCc1ccc(Cl)cc1 [Compound 276]
19,90%,O=C(O)CCCN(CCCNC(=O)Nc1ccccc1Br)C1CCCc2ccccc21 (stereo not drawn) [Compound 190]
20,84%,NC(=O)CCN(CCCNC(=O)Nc1ccccc1)CCc1ccc(Cl)cc1 [Compound 243]
21,95%,"COC(=O)CCCN(CCCCCNC(=O)Nc1ccc(Br)cc1)C1CCCc2ccccc21 (stereo not drawn) [Compound 33, Methyl 4-[[5-(4-bromophenylureido)penryl](1,2.3,4-tetrahvdro-1-naphthyl)amino]burylate]"
22,100%,Cc1cc(Br)ccc1NC(=O)NCCCN(CCCC(=O)O)C1CCCc2ccccc21 (stereo not drawn) [Compound 201]
23,89%,O=C(O)CCCN(CCCNC(=O)Nc1ccc(Br)cc1)C1CCc2ccccc21 (stereo not drawn) [Compound 177]
24,44%,COc1ccc(CCN(CCCNC(=O)Nc2ccc(Br)cc2)CCCC(=O)O)cc1OC [Compound 73]

# The next lines start with the compound.
row,Structure (SMILES),Chemotaxis Assay 10 µM (inhibition %)
1,COC(=O)CCCN(CCCNC(=O)Nc1cccc2ccccc12)C1CCCc2ccccc21 (stereo not drawn) [Compound 59],87%
2,"COC(=O)CCCN(CCCNC(=O)Nc1ccc(C)cc1)C1CCCc2ccccc21 (stereo not drawn) [Compound 34, Methyl 4-[[3-(4-methylphenylureido)propyl](1,2,3,4-tetrahydro-1-naphthyl)amino]butylate]",96%

# Same assay, conditions: 10 µM test compound; eotaxin 1 x 10^-9 M; CCR3/U937 cells (Table 3c)
row,Chemotaxis Assay 10 µM (inhibition %),Structure (SMILES)
1,100%,CC[N+](CCCNC(=O)Nc1ccc(Br)cc1)(CCCC(=O)OC)C1CCc2ccccc21.[I-] (stereo not drawn) [compound 314]
2,100%,CC[N+](CCCNC(=O)Nc1ccccc1)(CCc1ccc(Cl)cc1)Cc1ccc(Br)cc1.[I-] (stereo not drawn) [compound 340]

# Further lines, the compound ahead of its results:
row,Structure (SMILES),Chemotaxis Assay 10 µM (inhibition %)
1,CC[N+](CCCNC(=O)Nc1ccccc1)(CCc1ccc(Cl)cc1)Cc1ccc([N+](=O)[O-])cc1.[I-] (stereo not drawn) [compound 337],99%
2,CC[N+](CCCNC(=O)Nc1ccccc1)(CCc1ccc(Cl)cc1)Cc1ccc(OCc2ccccc2)c(OCc2ccccc2)c1.[I-] (stereo not drawn) [compound 350],59%
3,CC[N+](CCCNC(=O)Nc1ccccc1)(CCc1ccc(Cl)cc1Cl)Cc1ccccc1.[I-] (stereo not drawn) [compound 327],100%
4,CC[N+](CCCNC(=O)Nc1ccccc1)(CCc1ccc(Cl)cc1)Cc1ccccc1-c1ccccc1.[I-] (stereo not drawn) [compound 341],100%
5,CC[N+](CCCNC(=O)Nc1ccccc1)(CCc1ccc(Cl)cc1)Cc1cc2c(cc1Cl)OCO2.[I-] (stereo not drawn) [compound 348],100%
6,CC[N+](CCCNC(=O)Nc1ccccc1)(CCc1ccc(Cl)cc1)Cc1ccccc1C.[I-] (stereo not drawn) [compound 346],100%
7,CC[N+](CC)(CCCNC(=O)Nc1ccccc1)C1CCc2ccccc21.[I-] (stereo not drawn) [compound 311],93%

# Same assay, conditions: U-937; 10 µM test compound; eotaxin 1 x 10^-9 M; CCR3/U937 cells (Table 3a)
row,inhibition at 10 µM,Structure (SMILES)
1,99%,"CCCN(CCCNC(=O)Nc1ccccc1)CCc1ccc(Cl)cc1 [Compound 10, N-Phenylcarbamoyl-N'-[2-(4-chlorophenyl)ethyl]-N'-propyl-1,3-diaminopropane]"
2,100%,"O=C(O)CCCN(CCCNC(=O)Nc1ccc(Br)cc1)[C@@H]1CCc2ccccc21 [Compound 179, 4-[[3-(4-Bromophenylureido)propyl][(1R)-1-indanyl]amino]butanoic acid]"
3,100%,"O=C(O)CCCN(CCCCCNC(=O)Nc1ccc(Br)cc1)C1CCCc2ccccc21 (stereo not drawn) [Compound 63, 4-[[5-(4-Bromophenylureido)pentyl](1,2,3,4-tetrahydro-1-naphthyl)-amino]butanoic acid]"
4,51%,O=C(NCCCN(CCc1ccc(Cl)cc1)Cc1ccc(Cl)cc1)Nc1ccccc1 [Compound 17]
5,100%,"Cc1ccc(NC(=O)NCCCN(CCCC(=O)O)C2CCCc3ccccc32)cc1 (stereo not drawn) [Compound 64, 4-[[3-(4-Methylphenylureido)propyl](1,2,3,4-tetrahydro-1-naphthyl)-amino]butanoic acid]"

# Same assay, conditions: U-937; 10 µM test compound; eotaxin 1 x 10^-9 M; CCR3/U937 cells (Table 3c)
row,inhibition at 10 µM,Structure (SMILES)
1,100%,"CC[N+](CCCNC(=O)Nc1ccccc1)(CCc1ccc(Cl)cc1)Cc1cccc(F)c1 (stereo not drawn) [Compound 352, [3-(Phenylureido)propyl][2-(4-chlorophenyl)ethyl](3-fluorobenzyl)ethylammonium iodide]"

# Same assay, conditions: test compound 0.1 µg/ml; eotaxin 1 x 10^-9 M; CCR3/U937 transfectants; 37 °C, 1 hour
row,Chemotaxis Assay 0.1 µg/ml (inhibition %),Structure (SMILES)
1,76%,CC[N+](CCF)(CCCNC(=O)Nc1ccccc1)CCc1ccc(Cl)cc1Cl.[I-] (stereo not drawn) [compound 433]
2,53%,CC[N+](CCCNC(=O)Nc1ccccc1)(CCc1ccc(Cl)cc1Cl)CC(N)=O.[I-] (stereo not drawn) [compound 409]
3,67%,CCC(CC)C[N+](CC)(CCCNC(=O)Nc1ccccc1)CCc1ccc(Cl)cc1.[I-] (stereo not drawn) [compound 427]
4,86%,CC[N+](CCF)(CCCNC(=O)Nc1ccc(Cl)c(Cl)c1)CCc1cccc(F)c1.[I-] (stereo not drawn) [compound 371]
5,82%,CCC(CC)C[N+](CC)(CCCNC(=O)Nc1ccc(OC)cc1)CCc1cccc(Cl)c1.[I-] (stereo not drawn) [compound 448]
6,69%,CC[N+](CCCNC(=O)Nc1ccccc1)(CCOCCOC)CCc1cccc(F)c1.[I-] (stereo not drawn) [compound 416]
7,76%,CC[N+](CC#N)(CCCNC(=O)Nc1ccc(Br)cc1)CCc1cccc(Cl)c1.[I-] (stereo not drawn) [compound 372]
8,100%,CC[N+](CCF)(CCCNC(=O)Nc1ccccc1)CCc1ccc(Cl)c(Cl)c1.[I-] (stereo not drawn) [compound 434]
9,. 50%,CC[N+](CCCNC(=O)Nc1ccccc1)(CCc1ccc(Cl)c(Cl)c1)CC(N)=O.[I-] (stereo not drawn) [compound 410]
10,65%,CC[N+](CCCNC(=O)Nc1ccc(C(F)(F)F)cc1)(CCOCCOC)CCc1cccc(F)c1.[I-] (stereo not drawn) [compound 389]
11,57%,CC[N+](CCF)(CCCNC(=O)Nc1ccc(C#N)cc1)CCc1c(Cl)cccc1Cl.[I-] (stereo not drawn) [compound 405]
12,87%,CC[N+](CCCNC(=O)Nc1ccc(Br)cc1)(CCc1cccc(Cl)c1)CC1CCC1.[I-] (stereo not drawn) [compound 376]
13,76%,CCC(CC)C[N+](CC)(CCCNC(=O)Nc1ccccc1)CCc1ccc(Cl)c(Cl)c1.[I-] (stereo not drawn) [compound 430]
